“Also recorded” adds a separate entry of the source. Like-named read-outs stand apart in the source and are kept apart here. Each block holds one compound with its values, some of them ahead of it.
Experiments:
PvNMT = molecular target: T1, PvNMT (Plasmodium vivax, UniProt A5K1A2); assay: biochemical; type: biochemical; details: for PvNMT LE: LE = [–log(Ki)](1.374)/(no. of heavy atoms); for Ki: apparent Ki calculated from IC50 with Cheng–Prusoff equation
T1 sequence (A5K1A2 1-410): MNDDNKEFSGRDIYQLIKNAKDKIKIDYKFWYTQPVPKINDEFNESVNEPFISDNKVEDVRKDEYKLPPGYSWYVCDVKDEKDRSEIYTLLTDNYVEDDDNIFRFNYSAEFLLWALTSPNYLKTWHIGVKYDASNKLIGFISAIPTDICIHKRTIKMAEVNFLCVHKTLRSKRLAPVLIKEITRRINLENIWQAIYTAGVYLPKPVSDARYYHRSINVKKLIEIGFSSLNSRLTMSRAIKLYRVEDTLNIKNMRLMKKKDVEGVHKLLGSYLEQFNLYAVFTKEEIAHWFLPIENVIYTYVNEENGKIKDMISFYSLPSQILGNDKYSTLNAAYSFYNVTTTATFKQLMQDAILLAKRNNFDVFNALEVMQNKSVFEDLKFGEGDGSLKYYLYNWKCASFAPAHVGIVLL
Experimental: (§1) Enzyme assay information. All IC 50 determinations were carried out using a 7-diethylamine-3-(4’maleimidylphenyl)-4-methylcoumarin (CPM) fluorescence assay, as described by previously. 2–4 The HsNMT1, PfNMT and PvNMT assays are as described in the literature, for LdNMT the final enzyme concentration and peptide substrates are: [LdNMT]: 400 ng/mL; LdNMT Peptide Substrate: Homo sapiens […]
(§2) p60src (2-16) with sequence […]-NH 2 and the final concentration was 4.0 μM. IC 50 of an inhibitor was calculated by a nonlinear regression analysis using GraFit 7.0.1 version (Erithacus Software Limited, UK).The values are the mean value of two determinations; standard deviation is within 20% of the IC 50 unless […]
(§3) Ki values were calculated from the experimentally determined IC 50 values, the substrate concentration ([S]) and the Michaelis-Menten constant (K m) as described by […]

PfNMT = molecular target: T2, PfNMT (Plasmodium falciparum, UniProt Q9U419); assay: biochemical; type: biochemical; details: for PfNMT LE: LE = [–log(Ki)](1.374)/(no. of heavy atoms); for Ki: apparent Ki calculated from IC50 with Cheng–Prusoff equation
T2 sequence (Q9U419 1-410): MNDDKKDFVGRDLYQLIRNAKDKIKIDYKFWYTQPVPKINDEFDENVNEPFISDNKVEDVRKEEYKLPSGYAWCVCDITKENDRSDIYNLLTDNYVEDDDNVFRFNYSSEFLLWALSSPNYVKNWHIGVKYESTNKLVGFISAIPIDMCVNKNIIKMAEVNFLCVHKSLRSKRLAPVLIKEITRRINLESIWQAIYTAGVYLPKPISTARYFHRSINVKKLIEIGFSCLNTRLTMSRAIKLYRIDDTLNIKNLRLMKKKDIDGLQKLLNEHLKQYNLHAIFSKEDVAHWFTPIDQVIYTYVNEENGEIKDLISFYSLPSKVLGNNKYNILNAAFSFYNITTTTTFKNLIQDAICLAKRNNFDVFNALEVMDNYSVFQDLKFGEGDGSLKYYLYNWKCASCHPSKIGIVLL
Experimental: as §1, §2, §3

HsNMT1 = molecular target: T3, HsNMT1 (Homo sapiens, UniProt P30419); assay: HsNMT1 enzyme assay (CPM fluorescence); type: biochemical; details: apparent Ki calculated from IC50 with Cheng–Prusoff equation, read-out: HsNMT Ki
T3 sequence (P30419 1-496): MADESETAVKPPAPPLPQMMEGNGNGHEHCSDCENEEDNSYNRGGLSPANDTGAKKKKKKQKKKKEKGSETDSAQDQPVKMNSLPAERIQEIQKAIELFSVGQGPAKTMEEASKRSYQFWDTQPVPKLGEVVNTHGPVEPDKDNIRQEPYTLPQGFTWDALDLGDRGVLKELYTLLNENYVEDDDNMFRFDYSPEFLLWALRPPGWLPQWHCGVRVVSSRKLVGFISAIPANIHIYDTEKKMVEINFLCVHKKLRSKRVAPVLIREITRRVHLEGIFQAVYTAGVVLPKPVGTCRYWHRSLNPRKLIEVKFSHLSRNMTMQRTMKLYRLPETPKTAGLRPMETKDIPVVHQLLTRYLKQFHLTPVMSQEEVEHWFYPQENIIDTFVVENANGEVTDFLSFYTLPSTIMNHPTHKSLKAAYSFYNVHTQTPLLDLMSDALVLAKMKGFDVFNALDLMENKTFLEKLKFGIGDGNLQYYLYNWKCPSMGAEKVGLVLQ
Experimental: Enzyme assay information. All IC 50 determinations were carried out using a 7-diethylamine-3-(4’maleimidylphenyl)-4-methylcoumarin (CPM) fluorescence assay, as described by previously. […]
IC 50 of an inhibitor was calculated by a nonlinear regression analysis using GraFit 7.0.1 version (Erithacus Software Limited, UK).The values are the mean […]
as §3

LdNMT [1] = molecular target: LdNMT (Leishmania donovani, UniProt D0AB09); assay: biochemical; type: biochemical; details: for Ki: apparent Ki calculated from IC50 with Cheng–Prusoff equation
Sequence of LdNMT (Leishmania donovani, UniProt D0AB09) (D0AB09 entry or part of it): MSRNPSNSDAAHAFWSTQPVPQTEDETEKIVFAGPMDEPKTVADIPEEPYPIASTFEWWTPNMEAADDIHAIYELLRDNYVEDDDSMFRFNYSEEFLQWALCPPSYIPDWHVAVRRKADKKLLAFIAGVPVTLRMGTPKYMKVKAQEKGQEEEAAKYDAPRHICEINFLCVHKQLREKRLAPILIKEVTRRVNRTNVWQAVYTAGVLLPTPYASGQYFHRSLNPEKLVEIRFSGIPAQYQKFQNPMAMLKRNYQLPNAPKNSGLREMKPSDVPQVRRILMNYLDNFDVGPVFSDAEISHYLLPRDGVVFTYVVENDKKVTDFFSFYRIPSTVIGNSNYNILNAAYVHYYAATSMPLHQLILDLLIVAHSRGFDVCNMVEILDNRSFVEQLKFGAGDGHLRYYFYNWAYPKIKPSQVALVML
Experimental: as §1
(§4) was 4.0 μM. IC 50 of an inhibitor was calculated by a nonlinear regression analysis using GraFit 7.0.1 version (Erithacus Software Limited, UK).The values are the mean […]
as §3

L. donovani amastigotes = assay: L. donovani ex-vivo amastigotes inhibition assay (alamar blue); type: cell-based, Leishmania donovani; details: for EC50: Leishmania donovani, ex vivo L. donovani amastigotes, 72 hour incubation, read-out: Ld EC50
Experimental: L. donovani ex-vivo amastigotes inhibition assay. Assays were carried out as
described by Paape and colleagues.
recorded with a 590nm±10nm bandpass filter, POLARstar Optima). Parasites cultured
[1-(readout-medium)/(positive-medium)] x 100%. Assays were carried out in
Macrophage toxicity test. Assays were carried out as described by Paape and […]

LdNMT [2] = assay: biochemical; type: biochemical
Experimental: as §1, §4, §3

[3] = test system: bone marrow-derived macrophage (BMDM); details: 72 h
Experimental: (§5) colleagues.6 Briefly, bone marrow-derived macrophage (BMDM, 4.2 × 10^4/well of
(§6) 96-well plate ) were incubated at the relevant concentrations of test compounds in
(§7) DMEM medium containing 4% L929 cell and 10% FCS (fetal calf serum). Cells were
(§8) incubated at 37 °C and 5% CO2 for 72 hours. Aalamar blue (10% v/v) was added to
(§9) measuring the fluorescence as described above. Medium without cells containing the
(§10) corresponding concentration of compound was used as a medium control. Assays
were performed in duplicate.

[4] = Stability on incubation over a wide pH range; type: physicochemical; details: 37 °C, pH 1–10, 24 hours, data not shown
Description: The binding mode of 10j to Leishmania major NMT (98% sequence identity to LdNMT with closely superimposable ligand binding sites)[14],[29] was confirmed by determination of the crystal structure of the ternary complex of LmNMT, myrisotyl-CoA and 10j (PDB ID:; 5a27). The inhibitor binds in the expected site adjacent to the enzyme's C-terminal carboxylate to which its piperidine forms an ion pairing interaction. This and other key interactions are conserved in a related series in PvNMT.[24] […] This ‘ring opening’ phenomenon has been observed in related compounds within the program,[27] although to our knowledge, it has not been reported elsewhere. The origin of the ring-opened species observed in the crystals remains unclear, and further investigation is underway to determine the cause of this discrepancy (such as potential radiation damage). As characterisation of the compounds was consistent with the proposed oxadiazoles, the development of the series was continued.

[5] = test system: bone marrow-derived macrophage (BMDM); assay: Macrophage toxicity test (alamar blue); details: top concentration tested 90 μM
Experimental: as §5, §6, §7, §8, §9, §10
were performed in duplicate.

Ki (HsNMT1): 7.23 µM | LdNMT LE (LdNMT [1]): 0.26 | Ki (LdNMT [1]; […], read-out: LdNMT Ki): 4.02 µM
Compound: COc1cccc(Cc2noc(-c3cccc(OC)c3OC3CCNCC3)n2)c1 [Compound 10b]

Ki (HsNMT1): 7.44 µM | LdNMT LE (LdNMT [1]): 0.29 | Ki (LdNMT [1]; […], read-out: LdNMT Ki): 1.43 µM
Compound: COc1cccc(Cc2noc(-c3cccc(C)c3OC3CCNCC3)n2)c1 [Compound 10c]

Ki (HsNMT1): 4.64 µM | LdNMT LE (LdNMT [1]): 0.26 | Ki (LdNMT [1]; […], read-out: LdNMT Ki): 5.18 µM
Compound: COc1cccc(Cc2noc(-c3ccc(C)cc3OC3CCNCC3)n2)c1 [Compound 10d]

Ki (LdNMT [1]; […], read-out: LdNMT Ki): 3.04 µM
Compound: COc1cccc(Cc2noc(-c3ccc(OC)cc3OC3CCNCC3)n2)c1 [Compound 10e]

Ki (LdNMT [1]; […], read-out: LdNMT Ki): 0.68 µM
Compound: COc1cccc(Cc2noc(-c3ccc(Br)cc3OC3CCNCC3)n2)c1 [Compound 10h]

Ki (LdNMT [1]; […], read-out: LdNMT Ki): 0.24 µM
Compound: COc1cccc(Cc2noc(-c3cc(C)ccc3OC3CCNCC3)n2)c1 [Compound 10i]

EC50 (L. donovani amastigotes): > 50 µM | Ki (LdNMT [1]; […], read-out: LdNMT Ki): 0.01 µM
Compound: Cc1nn(C)c(C)c1Cc1nnc(-c2cc(Cl)ccc2OC2CCNCC2)o1 [Compound 13]
macrophage toxicity [5]: did not display any macrophage toxicity; also recorded: no macrophage toxicity | effect against ex vivo amastigotes (L. donovani amastigotes; up to 50 μM): no observed effect; also recorded: failed to inhibit | Macrophage LD50 [3]: >90 µM

Further lines, the compound ahead of its results:

Compound: COc1cccc(COC(=O)c2sc3ccccc3c2OC2CCNCC2)c1 [Compound 1]
PvNMT LE (PvNMT): 0.35 | Ki (PvNMT): 0.08 µM | PfNMT LE (PfNMT): 0.30 | Ki (PfNMT): 0.83 µM | Ki (HsNMT1): 3.2 µM | Ki (LdNMT [1]; […], read-out: LdNMT Ki): 5.82 µM

Compound: COc1cccc(COC(=O)c2sccc2OC2CCNCC2)c1 [Compound 5]
PvNMT LE (PvNMT): 0.30 | Ki (PvNMT): 6.5 µM | Ki (PfNMT): > 100 µM | Ki (HsNMT1): > 100 µM | LdNMT LE (LdNMT [1]): 0.35 | improvement in LdNMT enzyme affinity (LdNMT [1]): 8 fold | Ki (LdNMT [1]; […], read-out: LdNMT Ki): 0.73 µM | IC50 (LdNMT [1]; experimentally determined, substrate 4.0 μM): 0.82 ± 0.14 µM

Compound: COc1cccc(COC(=O)c2ccccc2OC2CCNCC2)c1 [Compound 6]
PvNMT LE (PvNMT): 0.31 | Ki (PvNMT): 2.42 µM | PfNMT LE (PfNMT): 0.29 | Ki (PfNMT): 6 µM | Ki (HsNMT1): > 100 µM | LdNMT LE (LdNMT [1]): 0.36 | Ki (LdNMT [1]; […], read-out: LdNMT Ki): 0.28 µM

Compound: COc1cccc(Cc2noc(-c3ccccc3OC3CCNCC3)n2)c1 [Compound 10a]
EC50 (L. donovani amastigotes): > 30 µM | Ki (HsNMT1): 1.24 µM | LdNMT LE (LdNMT [1]): 0.37 | improvement in LdNMT enzyme affinity (LdNMT [1]; 5 relative to 1, 10a relative to 6): ~ 4 fold | selectivity in favour of the parasite enzyme (LdNMT over HsNMT) (LdNMT [2]): 20 fold

Compound: COc1cccc(Cc2noc(-c3ccc(F)cc3OC3CCNCC3)n2)c1 [Compound 10g]
Macrophage LD50 [3]: 29.5 µM

Compound: COc1cccc(Cc2noc(-c3cc(Cl)ccc3OC3CCNCC3)n2)c1 [Compound 10j]
degradation on incubation [4]: no degradation | EC50 (L. donovani amastigotes): 6.7 µM | Macrophage LD50 [3]: 18.0 µM

Compound: COc1cccc(Cc2noc(-c3cc(OC)ccc3OC3CCNCC3)n2)c1 [Compound 10k]
EC50 (L. donovani amastigotes): 13.5 µM | Macrophage LD50 [3]: 27.9 µM

— publication PMC4757855, “Discovery of high affinity inhibitors of Leishmania donovani N-myristoyltransferase” (Medchemcomm, 2015)
